Reference: US20130131075A1, “NEW COMPOUNDS” (Boehringer Ingelheim International GmbH, priority 2009, published 2013)

Target: T1, cynomolgus BK1-receptor (Macaca fascicularis, UniProt Q3BCU0)
T1 construct: expressed in transfected cells; host or cells: CHO cells (homogenate)
T1 sequence (Q3BCU0 1-352): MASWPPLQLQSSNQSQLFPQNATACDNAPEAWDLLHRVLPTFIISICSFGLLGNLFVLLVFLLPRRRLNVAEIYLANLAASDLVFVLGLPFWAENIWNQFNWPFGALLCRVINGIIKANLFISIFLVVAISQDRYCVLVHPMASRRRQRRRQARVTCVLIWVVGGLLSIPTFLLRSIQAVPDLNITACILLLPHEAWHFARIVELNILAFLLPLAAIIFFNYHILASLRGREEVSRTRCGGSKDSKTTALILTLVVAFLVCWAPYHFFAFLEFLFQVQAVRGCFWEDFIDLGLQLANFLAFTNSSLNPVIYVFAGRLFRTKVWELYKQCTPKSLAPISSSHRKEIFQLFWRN
Assay: cynoBK1-receptor binding assay
Conditions: CHO cells expressing cynomolgus BK1-receptor, radioligand kallidine (DesArg10,Leu9); for inhibition at 10 µM: at 10 μgmol/L
Description: Description of the Method of Binding the cynoBK1-Receptor
CHO cells that express the cynomolgus BK1-receptor are cultivated in “HAM'S F-12 Medium”. The medium is removed from confluent cultures, the cells are washed with PBS buffer, scraped off or detached using Versene and isolated by centrifuging. Then the cells are homogenised in suspension, the homogenate is centrifuged and resuspended. After the protein content has been determined 200 μl of the homogenate (50 to 250 μg protein/assay) are incubated for 60-180 minutes at ambient temperature with 0.5 to 5.0 nM kallidine (DesArg10,Leu9), [3,4-Prolyl-3,43H(N)] and increasing concentrations of the test substance in a total volume of 250 μl. The incubation is stopped by rapid filtration through GF/B glass fibre filters that have been pre-treated with polyethyleneimine (0.3%). The radioactivity bound to the protein is measured with a TopCount NXT. The radioactivity bound in the presence of 1.0 μM kallidine (DesArg10) is defined as non-specific binding. The concentration binding curve may be analysed using computer-aided non-linear curve fitting to determine the corresponding Ki value for the test substance.
Test results of the cynoBK1-receptor binding assay: […]

SMILES | Ki [nM] | inhibition at 10 µM [%]
Cc1cc(Nc2ccc(F)cc2C(F)(F)F)cnc1CNC(=O)[C@]1(NC(=O)c2cncnc2)CCOC1 [(324)] | 22 | 
O=C(NC1(C(=O)NCc2ccc(Nc3ccccc3C(F)(F)F)cc2)CC1)c1cnc(O)nc1O [(9)] |  | 78
CC(NC(=O)C1(NC(=O)c2cncnc2)CC1)c1ccc(Nc2ccccc2C(F)(F)F)cn1 (centres unmarked) [(40)] | 2.9 | 110
Nc1cncc(C(=O)N[C@@]2(C(=O)NCc3ncc(Nc4ccc(Cl)cc4C(F)(F)F)cc3Cl)CCOC2)c1 [(285)] | 27 | 
Nc1cncc(C(=O)N[C@@]2(C(=O)NCc3ccc(Nc4ccccc4C(F)(F)F)cc3)CCOC2)c1 [(105)] | 20 | 113
O=C(CC(F)(F)F)N[C@@]1(C(=O)NCc2ncc(Nc3ccc(F)cc3C(F)(F)F)cc2Cl)CCOC1 [(225)] | 68 | 
CNc1ncc(C(=O)N[C@@]2(C(=O)NCc3ncc(Nc4ccc(Cl)cc4C(F)(F)F)cc3F)CCOC2)cn1 [(276)] | 17 | 
O=C(NC1(C(=O)NCc2ccc(Nc3ccc(F)cc3C(F)(F)F)cc2)CC1)c1ccno1 [(31)] | 13 | 112
O=C(CC(F)(F)F)NC1(C(=O)NCc2ccc(Nc3ccccc3C(F)(F)F)cc2)CC1 [(7)] |  | 100
O=C(N[C@@]1(C(=O)NCc2ccc(Nc3ccc(F)cc3C(F)(F)F)cc2)CCOC1)c1cnc2cc[nH]c2c1 [(365)] | 376 | 
Cc1cc(Nc2ccc(Cl)cc2C(F)(F)F)cnc1CNC(=O)[C@]1(NC(=O)c2cncc(N)c2)CCOC1 [(346)] | 48 | 
Cn1ccc(C(=O)NC2(C(=O)NCc3ncc(Nc4c(F)cccc4C(F)(F)F)cc3F)CC2)cc1=O [(132)] | 180 | 98
Nc1cncc(C(=O)N[C@@]2(C(=O)NCc3ncc(Nc4c(F)cccc4C(F)(F)F)cc3Cl)CCOC2)c1 [(237)] | 151 | 
O=C(NC1(C(=O)NCc2ccc(Nc3ccc(Br)cc3Cl)cn2)CC1)c1cncnc1 [(126)] | 46 | 103
Cc1cncc(C(=O)N[C@@]2(C(=O)NCc3ccc(Nc4ccc(F)cc4C(F)(F)F)cc3)CCOC2)c1 [(308)] | 427 | 
Nc1cncc(C(=O)N[C@@]2(C(=O)NCc3ncc(Nc4ccc(F)cc4C(F)(F)F)cc3Cl)CCOC2)c1 [(219)] | 8.9 | 
CCCCC(=O)NC1(C(=O)NCc2ccc(Nc3ccccc3C(F)(F)F)cc2)CC1 [(16)] |  | 91

Continued, values first:

Ki [nM] | inhibition at 10 µM [%] | SMILES
14 |  | CC(=O)Nc1ccc(C(=O)NC2(C(=O)NCc3ccc(Nc4ccc(F)cc4C(F)(F)F)cn3)CC2)cn1 [(251)]
17 |  | O=C(NC1(C(=O)NCc2ccc(Nc3ccc(Cl)cc3C(F)(F)F)cn2)CC1)c1cncc(O)c1 [(205)]
75 |  | Nc1nc2cc(C(=O)NC3(C(=O)NCc4ccc(Nc5ccc(Cl)cc5C(F)(F)F)cn4)CC3)ccc2[nH]1 [(265)]
10 |  | COc1ncc(C(=O)NC2(C(=O)NCc3ccc(Nc4ccc(F)cc4C(F)(F)F)cn3)CC2)cn1 [(233)]
15 |  | O=C(NC1(C(=O)NCc2ccc(Nc3ccc(Cl)cc3C(F)(F)F)cn2)CC1)c1ccc(NC2CC2)nc1 [(389)]
518 |  | CC(=O)Nc1cncc(C(=O)NC2(C(=O)NCc3ccc(Nc4ccc(F)cc4C(F)(F)F)cn3)CC2)c1 [(249)]
57 |  | Cc1ccc(C(=O)NC2(C(=O)NCc3ccc(Nc4ccc(Cl)cc4C(F)(F)F)cn3)CC2)cn1 [(312)]
49 |  | O=C(NC1(C(=O)NCc2ccc(Nc3ccc(F)cc3C(F)(F)F)cn2)CC1)c1cncc(Cl)c1 [(339)]
9.3 |  | Cc1cc(C(=O)NC2(C(=O)NCc3ccc(Nc4ccc(F)cc4C(F)(F)F)cn3)CC2)cnc1N [(391)]
54 |  | Cc1ncc(C(=O)N[C@@]2(C(=O)NCc3ccc(Nc4ccc(F)cc4C(F)(F)F)cn3)CCOC2)cn1 [(307)]
97 | 91 | O=C(N[C@@]1(C(=O)NCc2ccc(Nc3ccc(F)cc3C(F)(F)F)cn2)CCOC1)c1cnc2[nH]cnc2c1 [(159)]
42 |  | Cc1cncc(C(=O)NC2(C(=O)NCc3ccc(Nc4ccc(F)cc4C(F)(F)F)cn3)CC2)c1 [(302)]
